Source: ChEMBL document CHEMBL1135630 (J Med Chem, 2002)

Experiments:
[1] = Inhibition of [3H]- epibatidine binding at the Nicotinic acetylcholine receptor alpha beta (nAChR) in male rat cerebral cortex; type: tissue-based
Rattus norvegicus [2] = organism: Rattus norvegicus; test: Agonist activity against alpha beta Nicotinic acetylcholine receptor (nAChR) in male rat cerebral cortex using antinociceptive assay in hot plate test; type: functional
Rattus norvegicus [3] = organism: Rattus norvegicus; test: Agonist activity against alpha beta Nicotinic acetylcholine receptor (nAChR) in male rat cerebral cortex using antinociceptive assay in hypothermia test; type: functional
Rattus norvegicus [4] = organism: Rattus norvegicus; test: Agonist activity against alpha beta Nicotinic acetylcholine receptor (nAChR) in male rat cerebral cortex using antinociceptive assay in tail flick test; type: functional
Rattus norvegicus [5] = test: Antagonist activity after subcutaneously administration of nicotine at a dose of 2.5 mg/kg in hot- plate test at a concentration of 0.05 mg/kg; type: functional; set-up: scale not given: the % may be the effect or the level left
Rattus norvegicus [6] = test: Antagonist activity after subcutaneously administration of nicotine at a dose of 2.5 mg/kg in tail-flick test at a concentration of 0.05 mg/kg; type: functional; set-up: scale not given: the % may be the effect or the level left
[7] = target: Neuronal acetylcholine receptor subunit alpha-7 (Rattus norvegicus, UniProt Q05941); test: Inhibition of [125I]- iodo-MLA binding at the Nicotinic acetylcholine receptor alpha-7 (nAChR) in male rat cerebral cortex; type: tissue-based
Neuronal acetylcholine receptor subunit alpha-7, sequence (Q05941 whole entry): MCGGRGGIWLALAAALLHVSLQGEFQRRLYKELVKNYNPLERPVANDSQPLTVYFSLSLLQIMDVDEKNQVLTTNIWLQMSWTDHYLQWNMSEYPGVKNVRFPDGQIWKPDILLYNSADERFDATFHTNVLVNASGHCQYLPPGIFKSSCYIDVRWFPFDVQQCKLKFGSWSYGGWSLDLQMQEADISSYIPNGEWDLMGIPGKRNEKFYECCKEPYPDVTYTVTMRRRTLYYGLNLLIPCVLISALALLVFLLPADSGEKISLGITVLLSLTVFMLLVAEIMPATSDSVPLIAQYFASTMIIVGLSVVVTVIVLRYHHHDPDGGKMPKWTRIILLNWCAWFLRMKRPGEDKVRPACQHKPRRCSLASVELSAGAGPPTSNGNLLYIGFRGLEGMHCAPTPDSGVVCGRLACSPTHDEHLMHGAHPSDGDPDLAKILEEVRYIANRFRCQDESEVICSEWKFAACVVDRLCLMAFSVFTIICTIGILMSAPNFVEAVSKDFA

Rattus norvegicus [8] = organism: Rattus norvegicus; test: Agonist activity against alpha beta Nicotinic acetylcholine receptor (nAChR) in male rat cerebral cortex in antinociceptive assay in hot plate test; type: functional
Rattus norvegicus [9] = organism: Rattus norvegicus; test: Agonist activity against alpha beta Nicotinic acetylcholine receptor (nAChR) in male rat cerebral cortex in antinociceptive assay in hypothermia test; type: functional
Rattus norvegicus [10] = organism: Rattus norvegicus; test: Agonist activity against alpha beta Nicotinic acetylcholine receptor (nAChR) in male rat cerebral cortex in antinociceptive assay in tail flick test; type: functional
Rattus norvegicus [11] = test: Antagonist activity after subcutaneously administration of nicotine at a dose of 2.5 mg/kg in hotplate test at a concentration of 0.05 mg/kg; type: functional; set-up: scale not given: the % may be the effect or the level left
Rattus norvegicus [12] = test: Antagonist activity after subcutaneously administration of nicotine at a dose of 2.5 mg/kg in hot- plate test at a concentration of 0.01 mg/kg; type: functional; set-up: scale not given: the % may be the effect or the level left
Rattus norvegicus [13] = test: Antagonist activity after subcutaneously administration of nicotine at a dose of 2.5 mg/kg in tail-flick test at a concentration of 0.01 mg/kg; type: functional; set-up: scale not given: the % may be the effect or the level left
[14] = target: T1, Neuronal acetylcholine receptor (Rattus norvegicus) (UniProt P04757+P09483+P12389+P12390+P12392+P43144+Q9JLB5+P12391+P43143+P20420+Q05941); test: Agonist activity against alpha beta Nicotinic acetylcholine receptor (nAChR) in male rat cerebral cortex in antinociceptive assay in hypothermia test at a dose of 10 mg/kg; type: functional, organism-based; set-up: dose 10 mg/kg
[15] = target: T1, Neuronal acetylcholine receptor (Rattus norvegicus); test: Agonist activity against alpha beta Nicotinic acetylcholine receptor (nAChR) in male rat cerebral cortex in antinociceptive assay in tail flick test at a dose of 10 mg/kg; type: functional, organism-based; set-up: dose 10 mg/kg
[16] = target: T1, Neuronal acetylcholine receptor (Rattus norvegicus); test: Agonist activity against alpha beta Nicotinic acetylcholine receptor (nAChR) in male rat cerebral cortex in antinociceptive assay in hot plate test at a dose of 10 mg/kg; type: functional, organism-based; set-up: dose 10 mg/kg
Rattus norvegicus [17] = test: Antagonist activity after subcutaneously administration of nicotine at a dose of 2.5 mg/kg in hot- plate test, the values expressed as 95% confidence limit (value in parentheses is 95% confidence limits); type: functional; settings: route subcutaneous
Rattus norvegicus [18] = test: Antagonist activity after subcutaneously administration of nicotine at a dose of 2.5 mg/kg in tail-flick test (value in parentheses is 95% confidence limits); type: functional; settings: route subcutaneous

For `Fc1ncc([C@H]2CC3CCC2N3)cc1Br` (stereo partly drawn), the Ki [1] was 0.071 nM, the ED50 (Rattus norvegicus [2]) was 1200 µg/kg and the ED50 (Rattus norvegicus [3]) was 10 µg/kg. It also gave an ED50 (Rattus norvegicus [4]) of 700 µg/kg, an Effect (Rattus norvegicus [5]) of 0% and an Effect (Rattus norvegicus [6]) of 0%.

In the case of `Ic1ccc(C2CC3CCC2N3)cn1` (stereo not drawn), the Ki [1] is reported as 0.07 nM.

For `Brc1cc([C@H]2CC3CCC2N3)cnc1Br` (stereo partly drawn), the Ki [1] was 0.015 nM.

`Fc1cc([C@H]2CC3CCC2N3)cnc1F` (stereo partly drawn) showed a Ki [1] of 0.055 nM.

In the case of `Fc1ncc([C@H]2CC3CCC2N3)cc1Cl` (stereo partly drawn), the Ki [1] is reported as 0.02 nM.

`Brc1ccc([C@H]2CC3CCC2N3)cn1` (stereo partly drawn) gave a Ki [1] of 0.023 nM.

With `Oc1ccc([C@H]2CC3CCC2N3)cn1` (stereo partly drawn) the Ki [1] was 1.5 nM, the Ki [7] was 675 nM and the ED50 (Rattus norvegicus [8]) was 500 µg/kg. The ED50 (Rattus norvegicus [9]) was 1200 µg/kg and the ED50 (Rattus norvegicus [10]) was 1500 µg/kg.

For `Brc1cc([C@H]2CC3CCC2N3)cnc1I` (stereo partly drawn), the Ki [1] was 0.027 nM, the ED50 (Rattus norvegicus [2]) was 240 µg/kg and the ED50 (Rattus norvegicus [3]) was 40 µg/kg. The ED50 (Rattus norvegicus [4]) was 270 µg/kg, the Effect (Rattus norvegicus [11]) was 0% and the Effect (Rattus norvegicus [6]) was 4%.

Compound `Fc1ncc([C@H]2CC3CCC2N3)cc1I` (stereo partly drawn) has a Ki [1] of 0.051 nM, an ED50 (Rattus norvegicus [2]) of 900 µg/kg and an ED50 (Rattus norvegicus [3]) of 300 µg/kg. The ED50 (Rattus norvegicus [4]) was 700 µg/kg, the Effect (Rattus norvegicus [5]) was 0% and the Effect (Rattus norvegicus [6]) was 0%.

Work on `Nc1ncc([C@H]2CC3CCC2N3)cc1I` (stereo partly drawn) yielded a Ki [1] of 0.52 nM, a Ki [7] of 34.1 nM and an ED50 (Rattus norvegicus [2]) of 500 µg/kg. For the same compound, the ED50 (Rattus norvegicus [3]) was 300 µg/kg and the ED50 (Rattus norvegicus [4]) was 650 µg/kg.

In the case of `Nc1ncc([C@H]2CC3CCC2N3)cc1Br` (stereo partly drawn), the Ki [1] is reported as 0.29 nM, the ED50 (Rattus norvegicus [2]) is reported as 50 µg/kg and the ED50 (Rattus norvegicus [3]) is reported as 75 µg/kg. For the same compound, the ED50 (Rattus norvegicus [4]) was 70 µg/kg.

Work on `Clc1ncc([C@H]2CC3CCC2N3)cc1Br` (stereo partly drawn) yielded a Ki [1] of 0.013 nM, an ED50 (Rattus norvegicus [2]) of 20 µg/kg and an ED50 (Rattus norvegicus [3]) of 40 µg/kg. The ED50 (Rattus norvegicus [4]) was 30 µg/kg.

`Fc1ccc(C2CC3CCC2N3)cn1` (stereo not drawn) gave a Ki [1] of 0.027 nM.

Compound `Nc1ccc([C@H]2CC3CCC2N3)cn1` (stereo partly drawn) has a Ki [1] of 1.3 nM.

Work on `Fc1cc(C2CC3CCC2N3)cnc1Cl` (stereo not drawn) yielded a Ki [1] of 0.025 nM, a Ki [7] of 3.43 nM and an ED50 (Rattus norvegicus [2]) of 9 µg/kg. It also gave an ED50 (Rattus norvegicus [3]) of 6 µg/kg and an ED50 (Rattus norvegicus [4]) of 8 µg/kg.

`Clc1ccc(C2CC3CCC2N3)cn1` (racemic) [EPIBATIDINE] gave an ED50 (Rattus norvegicus [8]) of 4 µg/kg, an ED50 (Rattus norvegicus [9]) of 4 µg/kg and an ED50 (Rattus norvegicus [10]) of 6 µg/kg.

Work on `Clc1ncc(C2CC3CCC2N3)cc1I` (stereo not drawn) yielded a Ki [1] of 0.008 nM, an ED50 (Rattus norvegicus [2]) of 140 µg/kg and an ED50 (Rattus norvegicus [3]) of 27 µg/kg. The ED50 (Rattus norvegicus [4]) was 240 µg/kg, the Effect (Rattus norvegicus [12]) was 0% and the Effect (Rattus norvegicus [13]) was 4%.

Compound `Oc1ncc([C@H]2CC3CCC2N3)cc1Br` (stereo partly drawn) has an Effect [14] of 0%, an Effect [15] of 1% and a Ki [1] of 14.4 nM. The Effect [16] was 9%.

Work on `Nc1cc([C@H]2CC3CCC2N3)cnc1Cl` (stereo partly drawn) yielded a Ki [1] of 0.001 nM, a Ki [7] of 13.9 nM and an AD50 (Rattus norvegicus [17]) of 0.6 µg/kg. The AD50 (Rattus norvegicus [18]) was 0.03 µg/kg, the ED50 (Rattus norvegicus [2]) was 20 µg/kg and the ED50 (Rattus norvegicus [3]) was 17 µg/kg. For the same compound, the ED50 (Rattus norvegicus [4]) was 20 µg/kg.

`Clc1cc([C@H]2CC3CCC2N3)cnc1Cl` (stereo partly drawn) gave a Ki [1] of 0.014 nM, a Ki [7] of 1.12 nM and an ED50 (Rattus norvegicus [2]) of 30 µg/kg. The ED50 (Rattus norvegicus [3]) was 20 µg/kg and the ED50 (Rattus norvegicus [4]) was 50 µg/kg.
